Blank lines part the entries; values can stand above or below the molecule they belong to.
Columns and labels:
[1] = tested on: COX-1/COX-2/5-LOX; settings: from experimental IC50
[2] = tested on: LPS-inflamed THLE2 cells; settings: 1/10 of IC50, LPS 1 μg/mL, 24 h, G3 vs G2
Protocol: (§1) HepG2, MCF7, and THLE2 cells were initially seeded in a culture medium comprising DMEM supplemented with 10% FCS and 1% penicillin/streptomycin solution. These cultures were maintained at 37 °C in a 5% CO2 environment. The culture medium was refreshed twice a week, and when the cell cultures reached approximately 80% confluence, they were subcultured after trypsinization (0.05%, w/v). To mitigate mitogenic effects, the cells were pre-cultured in serum-free DMEM for a minimum of 4 h.
(§2) To induce inflammation, 1 μg/mL of LPS was added to the cultures, as previously described. Subsequently, the cells were allowed to incubate for a duration of 24 h.
(§3) Inflammatory marker levels, including TNFα, IL1b, COX-1, COX-2, and 5-LOX, were quantified following established procedures. In short, the cells were seeded at a density of 5 × 10^4 cells per well in flat-bottomed 96-well plates. […] The cells were then incubated at 37 °C for a period of 24 h.
(§4) After incubation, the culture medium was carefully collected into micro-centrifuge tubes and subjected to centrifugation at 1500 rpm for 10 min. The resulting supernatant was transferred to new micro-centrifuge tubes, and the levels of TNFα, IL1b, COX-1, COX-2, and 5-LOX were determined using an ELISA kit (TNFα, IL1b, COX-1, COX-2, and 5-LOX were determined using enzyme-linked immunoassay (ELISA) kits from Sigma Aldrich (Saint Louis, MO, USA), Abcam (Cambridge, UK), and Aviva Systems Biology (San Diego, CA, USA).

[3] = tested on: LPS-inflamed MCF7 cells; settings: 1/10 of IC50, LPS 1 μg/mL, 24 h, G3 vs G2
Protocol: as §1, §2, §3, §4

[4] = tested on: LPS-inflamed HepG2 cells; settings: 1/10 of IC50, LPS 1 μg/mL, 24 h
Protocol: as §1, §2, §3, §4

[5] = tested on: HepG2 (human liver cancer) cells; experiment: Cell viability, MTT assay, HepG2; assay type: cell-based
Protocol: (§5) HepG2, MCF7, and THLE2 cells were initially seeded at a density of 1 × 10^4 cells per well (100 μL per well) in DMEM medium. These cultures were then incubated at 37 °C in a 5% CO2 environment for 24 h to attain confluency levels ranging from 70% to 80%. […] The cells were allowed to culture for an additional 24 h.
(§6) After the incubation period, 10 μL of a 12 mM MTT stock solution (5 mg/mL MTT in sterile PBS) was introduced into each well. The plate was incubated for 4 h at 37 °C. Following this, the MTT solution was removed, and the purple formazan crystals that had developed at the well bottoms were dissolved by adding 100 μL of DMSO, allowing for a 20 min incubation. A negative control was included, which involved adding 10 μL of the MTT stock solution to 100 μL of medium alone.
(§7) The absorbance at 570 nm was subsequently measured using an ELISA reader (StatFax-2100, Awareness Technology, Inc., Palm City, FL, USA). […] Sigmoidal and dose-dependent curves were created to visualize the experimental results. These assays were conducted in triplicate and were repeated in three independent experiments.

[6] = target: human recombinant COX-2 (Homo sapiens, UniProt P35354); experiment: biochemical
Sequence of human recombinant COX-2 (P35354 18-604): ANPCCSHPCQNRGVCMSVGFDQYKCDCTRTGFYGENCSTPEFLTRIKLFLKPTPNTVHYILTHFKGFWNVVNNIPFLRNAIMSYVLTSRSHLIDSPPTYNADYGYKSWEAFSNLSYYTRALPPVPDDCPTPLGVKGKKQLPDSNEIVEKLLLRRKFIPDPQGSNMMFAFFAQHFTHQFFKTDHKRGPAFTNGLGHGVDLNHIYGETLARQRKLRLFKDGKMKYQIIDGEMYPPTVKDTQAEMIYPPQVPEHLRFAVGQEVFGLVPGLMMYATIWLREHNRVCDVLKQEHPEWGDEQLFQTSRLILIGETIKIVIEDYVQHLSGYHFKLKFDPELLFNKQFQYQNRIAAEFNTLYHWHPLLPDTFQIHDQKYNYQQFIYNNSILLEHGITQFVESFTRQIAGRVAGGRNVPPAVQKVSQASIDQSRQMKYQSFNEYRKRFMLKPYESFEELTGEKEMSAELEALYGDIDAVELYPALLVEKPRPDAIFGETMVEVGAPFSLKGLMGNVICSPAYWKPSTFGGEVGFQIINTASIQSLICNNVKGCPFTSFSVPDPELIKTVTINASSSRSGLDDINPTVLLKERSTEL

[7] = tested on: LPS-inflamed THLE2 cells; settings: 1/10 of LC50, LPS 1 µg/mL, 24 h, G3 compared to G2
Protocol: (§8) The levels of malondialdehyde (MDA), superoxide dismutase (SOD), catalase (CAT), and glutathione peroxidase (GPX) were quantified using commercial kits, following established protocols. […] Subsequently, the cells were exposed to 1 µg/mL of LPS for 24 h.
(§9) After this incubation period, the cells were rinsed with PBS, harvested from the plates, and suspended in 1 mL of ice-cold PBS (0.1 M, containing 0.05 mM EDTA). The cell suspension was homogenized, and the resulting homogenate was then subjected to centrifugation at 4000× g for 10 min at 4 °C. The obtained supernatants were preserved at −80 °C until they were ready for analysis. The protein concentration in each of the supernatant samples was determined using the Bradford assay.

[8] = tested on: LPS-inflamed MCF7 cells; settings: 1/10 of LC50, LPS 1 µg/mL, 24 h, G3 relative to G2
Protocol: as §8, §9

[9] = tested on: LPS-inflamed HepG2 cells; settings: 1/10 of LC50, LPS 1 µg/mL, 24 h, G3 relative to G2
Protocol: as §8, §9

[10] = target: ovine COX-1 (Ovis aries, UniProt P05979); experiment: biochemical
Sequence of ovine COX-1 (P05979 25-600): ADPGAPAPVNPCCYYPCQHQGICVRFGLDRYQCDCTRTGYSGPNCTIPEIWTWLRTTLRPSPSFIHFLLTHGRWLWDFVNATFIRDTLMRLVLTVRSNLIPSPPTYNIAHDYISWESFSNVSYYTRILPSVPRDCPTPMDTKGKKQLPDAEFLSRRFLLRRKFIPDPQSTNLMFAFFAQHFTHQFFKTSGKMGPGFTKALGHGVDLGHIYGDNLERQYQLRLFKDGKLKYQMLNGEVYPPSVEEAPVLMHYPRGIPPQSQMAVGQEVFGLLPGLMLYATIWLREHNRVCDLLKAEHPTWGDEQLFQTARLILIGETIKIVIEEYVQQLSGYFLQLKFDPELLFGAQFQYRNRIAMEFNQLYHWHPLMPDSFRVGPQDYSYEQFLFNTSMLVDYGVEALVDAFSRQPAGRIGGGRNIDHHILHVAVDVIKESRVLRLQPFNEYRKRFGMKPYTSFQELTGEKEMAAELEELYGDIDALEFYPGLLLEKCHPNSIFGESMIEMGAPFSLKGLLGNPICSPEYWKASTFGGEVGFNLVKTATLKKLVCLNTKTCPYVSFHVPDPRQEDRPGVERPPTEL

[11] = tested on: THLE2 (healthy human liver) cells; experiment: Cell viability, MTT assay, THLE2; assay type: cell-based
Protocol: as §5, §6, §7

[12] = tested on: MCF7 (human breast cancer) cells; experiment: Cell viability, MTT assay, MCF7; assay type: cell-based; settings: 24 h
Protocol: as §5, §6, §7

[13] = tested on: LPS-inflamed THLE2 cells; settings: qPCR, β-actin reference, G3 vs G2
Protocol: as §1, §2
(§10) To isolate total RNA from HepG2, MCF7, and THLE2 cells, the RNeasy Mini kit was employed in accordance with the manufacturer’s instructions and established methods. Subsequently, cDNA was synthesized from […] of the total RNA using Quantiscript reverse transcriptase. The resulting cDNA served as a template for evaluating the relative expression of target gene mRNAs, with β-actin serving as an internal reference. To amplify the isolated cDNA, 2X Maxima SYBR Green/ROX qPCR Master Mix was used, following the manufacturer’s protocol, and specific gene primers designed for the purpose.
(§11) The reaction volume and qPCR thermal conditions were consistent with those previously described. Upon completion of the final cycle, the temperature was increased from 60 to 95 °C to generate a melt curve. The relative change in gene expression was presented as a fold change, determined using quantities at the critical threshold (Ct) and the 2^−∆∆Ct method (Table 5).

[14] = tested on: LPS-inflamed MCF7 cells; settings: qPCR, β-actin reference, G3 vs G2
Protocol: as §1, §2, §10, §11

[15] = tested on: LPS-inflamed HepG2 cells; settings: qPCR, β-actin reference, G3 vs G2
Protocol: as §1, §2, §10, §11

[16] = target: T1, rabbit 5-LOX (Oryctolagus cuniculus, UniProt G1SNX0); experiment: In vitro 5-LOX inhibition assay (enzyme kit); assay type: biochemical; settings: mean of three values
T1 construct: purchased Cayman Chemical 560131
T1 sequence (G1SNX0 1-674): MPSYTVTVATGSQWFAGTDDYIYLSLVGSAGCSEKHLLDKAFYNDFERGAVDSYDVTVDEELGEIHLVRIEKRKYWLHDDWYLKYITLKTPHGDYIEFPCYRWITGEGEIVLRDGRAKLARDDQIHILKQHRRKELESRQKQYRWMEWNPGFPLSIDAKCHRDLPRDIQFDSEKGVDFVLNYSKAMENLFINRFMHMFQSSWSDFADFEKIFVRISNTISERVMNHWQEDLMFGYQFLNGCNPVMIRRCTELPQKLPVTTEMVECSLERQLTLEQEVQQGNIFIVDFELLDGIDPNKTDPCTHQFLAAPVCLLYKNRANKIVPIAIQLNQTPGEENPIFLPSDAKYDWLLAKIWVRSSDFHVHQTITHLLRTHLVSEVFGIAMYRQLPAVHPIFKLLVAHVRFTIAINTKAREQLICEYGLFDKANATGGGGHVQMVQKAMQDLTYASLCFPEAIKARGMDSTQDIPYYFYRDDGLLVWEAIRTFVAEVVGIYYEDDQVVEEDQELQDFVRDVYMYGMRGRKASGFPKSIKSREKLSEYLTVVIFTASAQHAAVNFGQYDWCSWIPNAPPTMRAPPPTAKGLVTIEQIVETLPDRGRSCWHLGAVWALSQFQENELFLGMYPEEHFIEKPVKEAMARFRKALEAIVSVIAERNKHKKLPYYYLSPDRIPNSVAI

Structure (SMILES): Nc1ccc(S(=O)(=O)Nc2ncccn2)cc1 [Sulfadiazine]
- experimental 5-LOX/COX-1 selectivity [1]: 1
- experimental COX-2/COX-1 selectivity [1]: 3.6
- 5-LOX level [2]: significantly reduced
- COX-2 level [2]: significantly reduced
- IL1b level [2]: significantly reduced
- TNFα level [2]: significantly reduced
- COX-2 level [3]: significantly reduced
- IL1b level [3]: significantly reduced
- TNFα level [3]: significantly reduced
- COX-2 level ([4]; G3 vs G2): significantly reduced
- IL1b level ([4]; G3 vs G2): significantly reduced
- TNFα level ([4]; G3 vs untreated LPS-inflamed cells (G2)): significantly reduced
- IC50 ([5]; Homo sapiens, HepG2, 24 h): 246 ± 4.1 µM
- IC50 [6]: 5.27 µM
- CAT levels [7]: significant elevation
- GPX levels [7]: significant elevation
- MDA levels [7]: substantial reduction
- SOD levels [7]: significant elevation
- CAT levels [8]: increased levels
- MDA levels [8]: significant augmentation
- CAT levels [9]: increased levels
- GPX levels [9]: increased levels
- MDA levels [9]: significant augmentation
- IC50 [10]: 18.4 µM
- IC50 ([11]; Homo sapiens, THLE-2, 24 h): 4.16 ± 0.0905 mM
- IC50 [12]: 216 ± 3.8 µM
- 5-LOX gene expression [13]: significantly blunted
- COX-1 gene expression [13]: not significant
- COX-2 gene expression [13]: significantly blunted
- IL1b gene expression [13]: significantly blunted
- TNFα gene expression [13]: significantly blunted
- 5-LOX gene expression [14]: significantly blunted
- COX-1 gene expression [14]: significantly blunted
- COX-2 gene expression [14]: significantly blunted
- IL1b gene expression [14]: significantly blunted
- TNFα gene expression [14]: significantly blunted
- 5-LOX gene expression [15]: significantly blunted
- COX-1 gene expression [15]: significantly blunted
- COX-2 gene expression [15]: significantly blunted
- IL1b gene expression [15]: significantly blunted
- TNFα gene expression [15]: significantly blunted
- IC50 [16]: 19.1 µM

Structure (SMILES): N.N.[Cl][Pt][Cl] [Cisplatin]
- IC50 ([5]; 24 h): 66.9 ± 1.8 µM
- IC50 ([11]; 24 h): 2.14 ± 0.0953 mM

- IC50 [16]: 16.7 µM
Structure (SMILES): Cc1ccc(-c2cc(C(F)(F)F)nn2-c2ccc(S(N)(=O)=O)cc2)cc1 [Celecoxib]

— article PMC10891904 (Pharmaceuticals, 2024)
